Results as given in ChEMBL document CHEMBL4610080, “Natural Products as Sources of New Drugs over the Nearly Four Decades from 01/1981 to 09/2019” (2020).

What was measured:
Assay type in all cases: functional
[1] = system: Staphylococcus aureus; experiment: Antibacterial activity against Staphylococcus aureus NCTC 8325 assessed as reduction in microbial growth
[2] = system: Enterococcus; experiment: Antibacterial activity against vancomycin-resistant Enterococcus assessed as reduction in microbial growth
[3] = system: Mycobacterium tuberculosis; experiment: Antibacterial activity against Mycobacterium tuberculosis assessed as reduction in microbial growth

Row | Structure (SMILES) | MIC [1] [µg/mL] | MIC [2] [µg/mL] | MIC [3] [µg/mL]
1 | CN[C@H](CC(C)C)C(=O)N[C@H]1C(=O)N[C@@H](CC(N)=O)C(=O)N[C@H]2C(=O)N[C@H]3C(=O)N[C@H](C(=O)N[C@H](C(=O)O)c4cc(O)cc(O)c4-c4cc3ccc4O)[C@H](O)c3ccc(c(Cl)c3)Oc3cc2cc(c3O[C@@H]2O[C@H](CO)[C@@H](O)[C@H](O)[C@H]2O[C@H]2C[C@](C)(N)[C@H](O)[C@H](C)O2)Oc2ccc(cc2Cl)[C@H]1O [VANCOMYCIN] | 1.4 |  | 
2 | O=C(Nc1ccc2c(c1)OC(F)(F)O2)Nc1ccc(Cl)c(C(F)(F)F)c1 | 0.18 | 1 | 0.93
3 | CC(=O)NC[C@H]1CN(c2ccc(N3CCOCC3)c(F)c2)C(=O)O1 [LINEZOLID] | 1 |  | 
